This is an account of results in US8273705B2, “Conversion of apoptotic proteins” (The Burnham Institute, priority 2002, dated 2012).

Experiment [1] has as its system TR3 expression. Description: TR3 expression by Northern blotting in MDA-MB-231 cells. The class given is cell-based. As to conditions: 3 h, MM11453 and MM11384 10^−6 M, TPA 100 ng/ml, EGF 200 ng/ml. As to the method: TR3 is also expressed in both estrogen-dependent ZR-75-1 and in estrogen-independent MDA-MB-231 breast cancer cells (Wu et al. 1997 Mol Cell Bio 17:6598-6608). […] Total RNAs were prepared from MDA-MB-231 cells treated with MM1153 (10^−6 M), MM11384 (10^−6M), TPA (100 ng/ml) or EGF (200 ng/ml) for 3 h. and analyzed by Northern blotting.

The next experiment concerns MDA-MB-231 cells. Description: GFP-TR3 subcellular localization by confocal microscopy in MDA-MB-231 cells. Type of experiment: cell-based. As to conditions: 10^−6 M, 1 hour. As to the method: Subcellular localization assays—Cells were seeded onto cover-slips in 6-well plates overnight, then transiently transfected with GFP-fusion expression plasmids. After 16 hours, cells were washed with PBS and fixed in 4% paraformaldehyde. For mitochondrial staining, cells were then incubated with anti-Hsp60 goat IgG (Santa Cruz, USA), followed by anti-goat IgG conjugated with Cy3 (Sigma). For cyt c staining, cells were incubated with monoclonal anti-cyt c IgG (PharMingen), followed by anti-mouse IgG conjugated with Cy5 (Amersham). Fluorescent images were collected and analyzed using a MRC-1024 MP laser-scanning confocal microscope (Bio-Rad). Subcellular fractionation assays were performed as described (Li, et al. 2000 Science 289:1159-1164). Briefly, cells (1×10^7 cells) suspended in 0.5 ml hypotonic buffer (5 mM Tris-HCl, pH 7.4, 5 mM KCl, 1.5 mM MgCl2, 0.1 mM EGTA, pH 8.0, and 1 mM DTT) were homogenized and cell extracts were centrifuged at 500×g for 5 min. […]
To study whether the TR3 nuclear-to-mitochondrial targeting pathway also occurs in breast cancer cells, a GFP-TR3 fusion construct was transfected into MDA-MB-231 cells. […] Next, GFP-TR3/ΔDBD was transiently transfected into ZR-75-1 or MDA-MB-231 cells, stained for mitochondria (Hsp60) and cytochrome c (Cyt c), and analyzed by confocal microscopy.

Experiment [2] concerns TR3 expression. Particulars: human prostate cancer cells; cited from earlier work.
For experiment [3], the system named is estrogen-dependent and -independent breast cancer cells. As to conditions: estrogen-dependent and -independent cell lines; cited from earlier work.
The target in the next experiment is T1, Bcl-2/ΔTM (Homo sapiens, UniProt P10415).
T1 construct: expressed in transfected cells; host or cells: CV-1
The experiment in a line: Mammalian two-hybrid assay in CV-1 cells. Particulars: Gal-TAD fusion co-expressed with Gal4-DBD-Bcl-2/ΔTM, 48 h. Type of experiment: cell-based. As to the method:
(§1) TR3/Bcl-2 interaction assays—Reporter gene assays using NurRE-tk-CAT in CV-1 cells, and GST pull-down assay were described previously (Li, et al. 2000 Science 289, 1159-1164). For the mammalian two-hybrid assays, CV-1 cells were co-transfected with pcDNA-Gal4TAD-TR3 or pcDNA-Gal4TAD-TR3/ΔDBD and pcDNA-Gal4DBD-Bcl-2/ΔTM along with a luciferase reporter gene driven by four copies of the Gal4-binding site. The cells were harvested and reporter gene activity was measured. For Co-IP assays, HEK293T cells were transiently transfected with various expression plasmids using a modified calcium phosphate precipitation method (Wu et al, 1997) in the presence of caspase inhibitors (zVAD-fmk) to prevent degradation of TR3 protein due to apoptosis. Cells were suspended in lysis buffer (50 mM Tris-HCl, PH7.4; 150 mM NaCl; 20 mM EDTA; 1% NP-40; 1 mM PMSF; 50 μg/ml Leupeptin; […]; 0.1 mM Na3VO4; and 1 mM DTT). […] Immunoreactive products were detected by chemiluminescence with an enhanced chemiluminescence system (ECL) (Amersham).
E. Two-hybrid assay—a two-hybrid assay was performed to assess the interaction of TR3 and Bcl-2. […] Reporter gene activity was determined 48 h later and normalized relative to β-gal activity.

Another experiment has as its system prostate cancer cells. Particulars: cited from earlier work.
The subject of experiment [4] is lung and breast cancer cells. As to conditions: cited from earlier work.
For experiment [5], the system named is TR3 expression. As to conditions: lung cancer cells; cited from earlier work.
In a further experiment the target is T2, Bcl-2 (Homo sapiens, UniProt P10415).
T2 construct: expressed in transfected cells; host or cells: HEK293T
Description: GST pull-down assay. Type of experiment: binding. As to the method: as §1, with “DTT). Cells extracts were cleared by incubation with the Protein A/G plus Agarose beads (Santa Cruz) and then incubated with appropriate antibody and 30 μl of Protein A or G plus Agarose beads overnight at 4° C.” for “DTT).”
C. in vitro protein binding assays. […] Bound proteins were analyzed by SDS-PAGE autoradiography. ^35S-labeled Bcl-2 was pulled down by GST-TR3 but not by GST. […]

For experiment [6], the system named is LNCaP prostate cancer cells. The experiment in a line: Colocalization of endogenous TR3 and transfected Bcl-2 in LNCaP cells. Type of experiment: cell-based. Particulars: TPA 100 ng/ml, 3 h. As to the method: D. co-localization in cells—First the interaction of endogenous TR3 and transfected Bcl-2 colocalization was identified in cells. The phorbol ester 12-0-tetradecanoyl phorbol-13-acetate (TPA) induces the expression of endogenous TR3 and its mitochondrial localization in LNCaP prostate cancer cells. LNCaP cells were transfected with Bcl-2 expression vector, treated with or without TPA (100 ng/ml) for 3 h, then immunostained with anti-Bcl-2 antibody (Santa Cruz) followed by Cy5-conjugated secondary antibody (Amersham Biosciences), or with mouse monoclonal anti-TR3 antibody followed by Cy3-conjugated secondary antibody (Sigma). Endogenous TR3 and transfected Bcl-2 were visualized using confocal microscopy and images were overlaid. […] TR3 was not detected prior to TPA treatment. […] In TPA-stimulated cells, the distribution patterns of endogenous TR3 and transfected Bcl-2 overlapped extensively in the cytoplasm, colocalizing with Hsp60, a mitochondria-specific protein.

In a further experiment the test system is TR3/Bcl-2 interaction. Description: Co-IP of endogenous TR3 and Bcl-2 in LNCaP cells. The class given is cell-based. As to conditions: TPA 3 hours. As to the method: A. co-immunoprecipitation assays—to identify the interaction between TR3 and Bcl-2, a monoclonal antibody was generated against the ligand-binding domain (GBD) of TR3 for co-immunoprecipitation (Co-IP) assays. LNCaP cells were treated with TPA to induce endogenous TR3 expression for 3 hours. Cell extracts were prepared from TPA-treated and non-treated cells and incubated with mouse monoclonal anti-TR3 antibody. Immunoblotting of immunoprecipitates employed anti-Bcl-2 antibody or rabbit polyclonal anti-TR3 anti-body (Active Motif).

Like-named read-outs stand apart in the source and are kept apart here.

T2 sequence (P10415 whole entry): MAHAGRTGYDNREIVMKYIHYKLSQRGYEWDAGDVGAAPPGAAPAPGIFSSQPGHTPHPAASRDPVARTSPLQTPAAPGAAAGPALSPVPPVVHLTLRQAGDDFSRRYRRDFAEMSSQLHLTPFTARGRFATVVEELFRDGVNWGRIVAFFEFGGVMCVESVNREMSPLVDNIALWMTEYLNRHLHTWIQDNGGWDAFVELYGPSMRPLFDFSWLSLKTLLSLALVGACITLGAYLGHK
T1 sequence (P10415 1-204 limits assumed, stated change not applied): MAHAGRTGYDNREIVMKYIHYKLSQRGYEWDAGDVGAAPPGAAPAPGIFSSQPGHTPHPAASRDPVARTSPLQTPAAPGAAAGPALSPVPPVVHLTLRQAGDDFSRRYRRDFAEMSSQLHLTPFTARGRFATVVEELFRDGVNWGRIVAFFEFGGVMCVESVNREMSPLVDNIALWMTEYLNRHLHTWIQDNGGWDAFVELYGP

As for `O=C(O)c1cc2ccc(-c3ccc(O)c(C45CC6CC(CC(C6)C4)C5)c3)cc2cc1Cl` [MM11453, 6-[3-(1-adamantyl)-4-hydroxyphenyl]-3-chloro-2-naphthalenecarboxylic acid], the TR3 expression entry in the experiment on TR3 expression [1] is on record as “significantly induced”; with TR3 expression [2], “induced TR3 expression”. In addition, in the experiment on MDA-MB-231 cells, the GFP-TR3 subcellular localization result is “translocated to mitochondria”. Moreover, the “apoptosis of breast cancer cells” value in [3] is “effectively induces apoptosis”.

For the compound “TR3: orphan receptor TR3, nuclear transcription factor”, the “Gal4 reporter gene activity” value with Bcl-2/ΔTM was “strongly activated”.

For `O=C(O)c1ccc2cc(-c3ccc(O)c(C45CC6CC(CC(C6)C4)C5)c3)ccc2c1` [AHPN, 6-[3-(1-adamantyl)-4-hydroxyphenyl]-2-naphthalene carboxylic acid], the “apoptosis of prostate cancer cells” value in the experiment with prostate cancer cells is “potently induces apoptosis”. Moreover, the “apoptosis of lung and breast cancer cells” value in experiment [4] is given as “effectively induce apoptosis”. In addition, the TR3 expression result with TR3 expression [5] is listed as “significantly induced”. In addition, in [3], the “apoptosis of breast cancer cells” value was “effectively induces apoptosis”.

As for `Cc1cc2c(cc1/C=C(\Br)C(=O)c1ccc(C(=O)O)cc1)C(C)(C)CCC2(C)C` [MM11384, (Z)-4-[2-bromo-3-(5,6,7,8-tetrahydro-3,5,5,8,8-pentamethyl-2-naphthalenyl)propenoyl]benzoic acid], the TR3 expression entry in the experiment with TR3 expression [1] was “induced”; in the experiment with TR3 expression [2], “induced TR3 expression”. Besides, in the experiment on MDA-MB-231 cells, the GFP-TR3 subcellular localization entry is listed as “translocated to mitochondria”.

On to “GST-TR3: GST fusion of TR3 immobilized on glutathione-Sepharose”, for which the “binding of ^35S-labeled Bcl-2” value in the experiment with Bcl-2 was “pulled down”.

For the compound `CNc1ccc2oc(C[C@H]3O[C@@]4(CC[C@H]3C)O[C@H]([C@H](C)C(=O)c3ccc[nH]3)[C@H](C)C[C@H]4C)nc2c1C(=O)O` [A23187], the TR3 expression result with TR3 expression [2] was “induced TR3 expression”.

Regarding `CCCCCCCCCCCCCC(=O)O[C@@H]1[C@@H](C)[C@@]2(O)[C@@H](C=C(CO)C[C@]3(O)C(=O)C(C)=C[C@@H]23)[C@@H]2C(C)(C)[C@]12OC(C)=O` [TPA, 12-O-tetradecanoyl phorbol-13-acetate], in the experiment on TR3 expression [1], the TR3 expression result is on record as “induced”. For the same compound, in experiment [6], the TR3 immunostaining entry is listed as “strong TR3 immunostaining”; the “cells demonstrating colocalization of endogenous TR3 and transfected Bcl-2” value is listed as “Approximately 80%”. Further, the “co-immunoprecipitation of Bcl-2 by anti-TR3 antibody” value in the experiment with TR3/Bcl-2 interaction is reported as “specifically co-immunoprecipitated”. In the experiment with TR3 expression [2], the TR3 expression entry was “induced TR3 expression”.

As to “EGF: the mitogenic agent epidermal growth factor”, the TR3 expression result with TR3 expression [1] was “induced”.

As to `COc1cc([C@@H]2c3cc4c(cc3[C@@H](O[C@@H]3O[C@@H]5CO[C@@H](C)O[C@H]5[C@H](O)[C@H]3O)[C@H]3COC(=O)[C@H]23)OCO4)cc(OC)c1O` [VP-16], in the experiment with TR3 expression [2], the TR3 expression entry is on record as “induced TR3 expression”.
